How the values were obtained:
[1] = system: bedstraw; experiment: Test B pre/postemergence bedstraw; type: in vivo, Galium aparine; settings: Preemergence
Outline: (§1)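 Test chemicals in a non-phytotoxic solvent mixture with surfactant were sprayed preemergence onto planted seeds and postemergence onto plants 2 to 18 cm tall (1- to 4-leaf stage). After twelve to sixteen days in a greenhouse, injury was visually rated against untreated controls from 0 (no effect) to 10 (complete control).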

[2] = system: blackgrass; experiment: Test B pre/postemergence blackgrass; type: in vivo, Alopecurus myosuroides
Outline: as §1

[3] = system: surinam grass; experiment: Test B pre/postemergence surinam grass; type: in vivo, Brachiaria decumbens
Outline: as §1

[4] = system: cocklebur; experiment: Test B pre/postemergence cocklebur; type: in vivo, Xanthium strumarium
Outline: as §1

[5] = system: corn; experiment: Test B pre/postemergence corn; type: in vivo, Zea mays
Outline: as §1

[6] = system: crabgrass; experiment: Test B pre/postemergence crabgrass; type: in vivo, Digitaria sanguinalis
Outline: as §1

[7] = system: giant foxtail; experiment: Test B pre/postemergence giant foxtail; type: in vivo, Setaria faberii
Outline: as §1

[8] = system: morningglory; experiment: Test B pre/postemergence morningglory; type: in vivo, Ipomoea hederacea
Outline: as §1

[9] = system: pigweed; experiment: Test B pre/postemergence pigweed; type: in vivo, Amaranthus retroflexus
Outline: as §1

[10] = system: rape; experiment: Test B pre/postemergence rape; type: in vivo, Brassica napus
Outline: as §1

[11] = system: soybean; experiment: Test B pre/postemergence soybean; type: in vivo, Glycine max
Outline: as §1

[12] = system: sugar beet; experiment: Test B pre/postemergence sugar beet; type: in vivo, Beta vulgaris
Outline: as §1

[13] = system: velvetleaf; experiment: Test B pre/postemergence velvetleaf; type: in vivo, Abutilon theophrasti
Outline: as §1

[14] = system: wheat; experiment: Test B pre/postemergence wheat; type: in vivo, Triticum aestivum
Outline: as §1

[15] = system: wild oat; experiment: Test B pre/postemergence wild oat; type: in vivo, Avena fatua
Outline: as §1

[16] = system: purple nutsedge; experiment: Test B pre/postemergence purple nutsedge; type: in vivo, Cyperus rotundus
Outline: as §1

[17] = Postemergence, Rate 62 g/ha, scale 0 to 10, 0 is no effect, 10 is complete control
[18] = Postemergence, Rate 125 g/ha, scale of 0 to 10 where 0 is no effect and 10 is complete control
[19] = Postemergence, Rate 250 g/ha, scale of 0 to 10, 0 is no effect, 10 is complete control
[20] = Preemergence, Rate 62 g/ha, scale of 0 to 10 where 0 is no effect and 10 is complete control
[21] = Preemergence, Rate 125 g/ha, scale of 0 to 10 where 0 is no effect and 10 is complete control
[22] = Preemergence, Rate 250 g/ha, scale 0 to 10 (0 no effect, 10 complete control)
[23] = Preemergence, Rate 500 g/ha, scale of 0 to 10 where 0 is no effect and 10 is complete control
[24] = Rate 500 g/ha, Postemergence, scale 0 to 10, 0 is no effect, 10 is complete control

C#CC(C=C(C)C)n1c(=O)on(C(=O)N(c2ccccc2)C(C)C)c1=O (centres unmarked) [Compound 652]
Bedstraw plant response rating ([1]; Rate 62 g/ha, scale of 0 to 10 where 0 is no effect and 10 is complete control): 0
Bedstraw plant response rating ([1]; Rate 125 g/ha, scale of 0 to 10 where 0 is no effect and 10 is complete control): 0
Plant response rating, Bedstraw ([1]; Rate 250 g/ha, scale 0 to 10 (0 no effect, 10 complete control)): 0
Plant response rating, Bedstraw ([1]; Rate 500 g/ha, scale of 0 to 10 where 0 is no effect and 10 is complete control): 0
Plant response rating, Blackgrass [2, 17]: 0
Blackgrass plant response rating [2, 18]: 0
Blackgrass plant response rating [2, 19]: 0
Blackgrass plant response rating [2, 20]: 0
Blackgrass plant response rating [2, 21]: 0
Plant response rating, Blackgrass [2, 22]: 0
Plant response rating, Blackgrass [2, 23]: 2
Blackgrass plant response rating [2, 24]: 0
Plant response rating, B. signalgrass [3, 17]: 0
Plant response rating, B. signalgrass [3, 18]: 0
B. signalgrass plant response rating [3, 19]: 0
B. signalgrass plant response rating [3, 20]: 0
B. signalgrass plant response rating [3, 21]: 0
Plant response rating, B. signalgrass [3, 22]: 2
Plant response rating, B. signalgrass [3, 23]: 2
B. signalgrass plant response rating [3, 24]: 2
Plant response rating, Cocklebur [4, 17]: 0
Cocklebur plant response rating [4, 18]: 0
Cocklebur plant response rating [4, 19]: 0
Cocklebur plant response rating [4, 20]: 0
Cocklebur plant response rating [4, 21]: 0
Plant response rating, Cocklebur [4, 22]: 0
Plant response rating, Cocklebur [4, 23]: 3
Cocklebur plant response rating [4, 24]: 0
Plant response rating, Corn [5, 17]: 0
Corn plant response rating [5, 18]: 0
Corn plant response rating [5, 19]: 0
Corn plant response rating [5, 20]: 0
Corn plant response rating [5, 21]: 0
Plant response rating, Corn [5, 22]: 0
Plant response rating, Corn [5, 23]: 0
Corn plant response rating [5, 24]: 0
Plant response rating, Crabgrass [6, 17]: 0
Crabgrass plant response rating [6, 18]: 0
Crabgrass plant response rating [6, 19]: 0
Crabgrass plant response rating [6, 20]: 4
Crabgrass plant response rating [6, 21]: 8
Plant response rating, Crabgrass [6, 22]: 8
Plant response rating, Crabgrass [6, 23]: 9
Crabgrass plant response rating [6, 24]: 6
Plant response rating, Giant foxtail [7, 17]: 0
Giant foxtail plant response rating [7, 18]: 3
Giant foxtail plant response rating [7, 19]: 4
Giant foxtail plant response rating [7, 20]: 8
Giant foxtail plant response rating [7, 21]: 9
Plant response rating, Giant foxtail [7, 22]: 9
Plant response rating, Giant foxtail [7, 23]: 9
Giant foxtail plant response rating [7, 24]: 8
Plant response rating, Morningglory [8, 17]: 3
Morningglory plant response rating [8, 18]: 3
Morningglory plant response rating [8, 19]: 5
Morningglory plant response rating [8, 20]: 0
Morningglory plant response rating [8, 21]: 0
Plant response rating, Morningglory [8, 22]: 0
Plant response rating, Morningglory [8, 23]: 0
Morningglory plant response rating [8, 24]: 7
Plant response rating, Redroot pigweed [9, 17]: 0
Redroot pigweed plant response rating [9, 18]: 0
Redroot pigweed plant response rating [9, 20]: 0
Redroot pigweed plant response rating [9, 21]: 0
Plant response rating, Redroot pigweed [9, 22]: 0
Plant response rating, Redroot pigweed [9, 23]: 0
Redroot pigweed plant response rating [9, 24]: 6
Plant response rating, Rape [10, 17]: 0
Rape plant response rating [10, 20]: 0
Rape plant response rating [10, 21]: 0
Plant response rating, Rape [10, 22]: 0
Plant response rating, Rape [10, 23]: 0
Rape plant response rating [10, 24]: 0
Plant response rating, Soybean [11, 17]: 0
Soybean plant response rating [11, 18]: 0
Soybean plant response rating [11, 20]: 0
Soybean plant response rating [11, 21]: 0
Plant response rating, Soybean [11, 22]: 0
Plant response rating, Soybean [11, 23]: 0
Soybean plant response rating [11, 24]: 3
Plant response rating, Sugarbeets [12, 17]: 0
Sugarbeets plant response rating [12, 20]: 0
Sugarbeets plant response rating [12, 21]: 0
Plant response rating, Sugarbeets [12, 22]: 0
Plant response rating, Sugarbeets [12, 23]: 0
Sugarbeets plant response rating [12, 24]: 2
Plant response rating, Velvetleaf [13, 17]: 0
Velvetleaf plant response rating [13, 18]: 0
Velvetleaf plant response rating [13, 20]: 0
Velvetleaf plant response rating [13, 21]: 0
Plant response rating, Velvetleaf [13, 22]: 0
Plant response rating, Velvetleaf [13, 23]: 1
Velvetleaf plant response rating [13, 24]: 0
Plant response rating, Wheat [14, 17]: 0
Wheat plant response rating [14, 18]: 0
Wheat plant response rating [14, 20]: 0
Wheat plant response rating [14, 21]: 0
Plant response rating, Wheat [14, 22]: 0
Plant response rating, Wheat [14, 23]: 0
Wheat plant response rating [14, 24]: 2
Plant response rating, Wild oats [15, 17]: 0
Wild oats plant response rating [15, 18]: 0
Wild oats plant response rating [15, 20]: 0
Wild oats plant response rating [15, 21]: 0
Plant response rating, Wild oats [15, 22]: 0
Plant response rating, Wild oats [15, 23]: 0
Wild oats plant response rating [15, 24]: 0
Nutsedge plant response rating [16, 18]: 0
Nutsedge plant response rating [16, 20]: 0
Nutsedge plant response rating [16, 21]: 0
Plant response rating, Nutsedge [16, 22]: 0
Plant response rating, Nutsedge [16, 23]: 3
Nutsedge plant response rating [16, 24]: 0

— patent US6737383B1, “Herbicidal oxadiazolidines” (priority 1999, dated 2004)
